In one experiment the target is T1, Human recombinant PKCε (Homo sapiens, UniProt Q02156).
T1 construct: purchased Oxford Biomedical Research
T1 sequence (Q02156 1-737): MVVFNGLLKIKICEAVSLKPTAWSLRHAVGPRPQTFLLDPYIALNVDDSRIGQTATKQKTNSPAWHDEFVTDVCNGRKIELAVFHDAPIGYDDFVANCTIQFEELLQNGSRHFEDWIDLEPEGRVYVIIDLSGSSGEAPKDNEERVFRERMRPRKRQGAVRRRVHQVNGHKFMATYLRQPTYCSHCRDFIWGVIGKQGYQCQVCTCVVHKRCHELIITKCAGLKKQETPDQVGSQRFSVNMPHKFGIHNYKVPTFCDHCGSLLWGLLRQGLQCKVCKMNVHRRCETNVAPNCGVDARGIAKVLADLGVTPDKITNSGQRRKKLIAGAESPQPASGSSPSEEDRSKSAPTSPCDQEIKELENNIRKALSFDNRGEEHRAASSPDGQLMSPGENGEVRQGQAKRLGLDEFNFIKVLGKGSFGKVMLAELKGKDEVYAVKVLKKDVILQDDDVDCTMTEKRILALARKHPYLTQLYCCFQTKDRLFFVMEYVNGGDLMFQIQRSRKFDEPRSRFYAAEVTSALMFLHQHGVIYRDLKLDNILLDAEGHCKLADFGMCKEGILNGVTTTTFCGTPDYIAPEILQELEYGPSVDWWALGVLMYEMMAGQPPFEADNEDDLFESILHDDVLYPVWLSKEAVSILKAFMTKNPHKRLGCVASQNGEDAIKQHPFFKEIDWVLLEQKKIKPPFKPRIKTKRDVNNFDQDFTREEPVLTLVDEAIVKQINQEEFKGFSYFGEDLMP
Description: Protein Kinase Cε Assay. It counts as biochemical. How it is done: (§1) The compounds of formula I are tested for their activity on different PKC isoforms according to a published method (D. Geiges et al. Biochem. Pharmacol. 1997; 53:865-875) The assay is performed in a 96-well polypropylene microtiterplate (Costar 3794) that has been previously siliconized with Sigmacote (Sigma SL-2). The reaction mixture (50 μl) contains 10 μl of the relevant PKC isozyme together with 25 μl of the test compound and 15 μl of a mix solution that contains 200 μg/ml protamine sulfate, 10 mM Mg(NO3)2, 10 μM ATP (Boehringer 519987) and 3750 Bq of ^33P-ATP (Hartmann Analytic SFC301, 110TBq/mmol) in 20 mM Tris-buffer pH 7.4+0.1% BSA. Incubation is performed for 15 min at 32° C. in a microtiterplate shaking incubator (Biolabo Scientific Instruments). Reaction is stopped by adding 10 μl of 0.5 M Na2EDTA, pH 7.4. 50 μl of mixture are pipetted onto a pre-wetted phosphocellulose paper (Whatmann 3698-915) under gentle pressure. Non-incorporated ATP is washed away with 100 μl bi-dist H2O. The paper is washed twice in 0.5% H3PO4 for 15 min followed by 5 min in EtOH. Thereafter the paper is dryed and placed in an omnifilter (Packard 6005219), and overlayed with 10 μl/well of Microscint-O (Packard 6013611) before counting in a Topcount radioactivity counter (Packard). […] IC50 values are calculated from the graph by sigmoidal curve fitting. […]

For a further experiment, the target named is Human recombinant PKCθ (Homo sapiens, UniProt Q04759). Briefly: Protein Kinase C θ Assay. It counts as biochemical. The procedure: as §1
Sequence of Human recombinant PKCθ (Q04759 whole entry): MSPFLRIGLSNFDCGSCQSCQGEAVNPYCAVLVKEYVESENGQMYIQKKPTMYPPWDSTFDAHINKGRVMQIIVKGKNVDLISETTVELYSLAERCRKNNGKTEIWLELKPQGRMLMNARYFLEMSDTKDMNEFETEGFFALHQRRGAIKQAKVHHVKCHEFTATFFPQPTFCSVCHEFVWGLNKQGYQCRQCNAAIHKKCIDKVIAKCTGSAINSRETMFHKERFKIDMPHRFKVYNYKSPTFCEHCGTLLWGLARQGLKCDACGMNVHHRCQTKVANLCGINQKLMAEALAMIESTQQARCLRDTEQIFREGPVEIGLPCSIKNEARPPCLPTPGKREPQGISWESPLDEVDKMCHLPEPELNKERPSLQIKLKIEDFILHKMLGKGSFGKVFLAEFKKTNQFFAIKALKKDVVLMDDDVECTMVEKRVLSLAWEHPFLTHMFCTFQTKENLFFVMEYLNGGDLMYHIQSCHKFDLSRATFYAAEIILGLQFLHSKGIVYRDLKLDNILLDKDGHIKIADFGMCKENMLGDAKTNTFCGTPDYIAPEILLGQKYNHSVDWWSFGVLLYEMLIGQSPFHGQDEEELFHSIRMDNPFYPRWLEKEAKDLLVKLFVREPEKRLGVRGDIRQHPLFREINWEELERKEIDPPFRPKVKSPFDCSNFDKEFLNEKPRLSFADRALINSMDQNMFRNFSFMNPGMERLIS

Drawing on patent US7534808B2, “Indolylmaleimide derivatives” (priority 2002, dated 2009), this text covers IC50 for one molecule.

The structures appear in SMILES notation.

A word on the IC50: it is the midpoint of a concentration-inhibition curve. Take `Cc1cccc2c(C3=C(c4nc(N5CCNC6(CC6)C5)cc5ccccc45)C(=O)NC3=O)c[nH]c12` [Example 69, 3-[3-(4,7-Diaza-spiro[2.5]oct-7-yl)-isoquinolin-1-yl]-4-(7-methyl-1H-indol-3-yl)-pyrrole-2,5-dione]: the 50% inhibitory concentration (IC50) on Human recombinant PKCε came out at 18 nM; on Human recombinant PKCθ, 12.1 nM.
